Laboratory results: patent publication US20150125515A1, “NOVEL SP-B & SP-C PEPTIDES, SYNTHETIC LUNG SURFACTANTS, AND USE THEREOF” (UNIVERSITY OF ROCHESTER, priority 2012, published 2015)

What was measured:
[1] = Adsorption of surfactant compositions to the air-water interface (surface pressure vs time, Wilhelmy method); format: physicochemical; settings: Means ± SEM
Experimental: (§1) Surface activity of synthetic peptide/lipid surfactant compositions was assessed by either or both of the following methods: (1) measurement of the adsorption of surfactant compositions to the air-water interface as a function of time, and (2) measurement of overall dynamic surface activity on a pulsating bubble surfactometer (general methodological details of these two experimental techniques are described by Notter, Lung Surfactants: Basic Science and Clinical Applications, Marcel Dekker, Inc, New York (2000), which is hereby incorporated by reference in its entirety).
In adsorption studies, a given surfactant mixture was injected at time zero beneath the surface of a stirred surfactant-free subphase, and surface pressure (defined as surface tension lowering below that of the pure subphase) was measured as a function of time from the force on a hanging platinum slide (“Wilhelmy” method). By definition, higher surface pressure corresponds to lower surface tension (Notter, Lung Surfactants: Basic Science and Clinical Applications, Marcel Dekker, Inc, New York (2000)).

[2] = Pulsating bubble surfactometer, minimum surface tension; format: physicochemical; settings: Table 8, 37° C, 20 cycles/min, 50% area compression, 2.5 mg/ml phospholipid, Means ± SEM, N = 4
Experimental: as §1
In pulsating bubble studies, surface tension at minimum bubble radius (minimum surface tension) was determined as a function of time during pulsation on a bubble surfactometer (General Transco, Largo, Fla.) (37° C., 20 cycles/min, 50% area compression). A tiny air bubble was formed and pulsated between maximum and minimum radii of 0.55 and 0.4 mm, respectively, and the pressure drop across the air-water interface of the bubble was measured with a precision transducer. Minimum surface tension was calculated from the measured pressure drop at minimum radius (0.4 mm) from the Laplace equation (Enhorning, “Pulsating Bubble Technique for Evaluation of Pulmonary Surfactant,” J Appl Physiol 43:198-203 (1977); Hall et al., “Approximations in the Measurement of Surface Tension with the Oscillating Bubble Surfactometer,” J Appl Physiol 75:468-477 (1993), each of which is hereby incorporated by reference in its entirety). Measurements of overall surface activity on this instrument reflect the combined effects of adsorption and dynamic film compression at a cycling rate (20 cycles/min), temperature (37° C.), and area compression (50% compression from maximum to minimum area) relevant for the mammalian lungs in vivo (Notter, Lung Surfactants: Basic Science and Clinical Applications, Marcel Dekker, Inc, New York (2000); Enhorning, “Pulsating Bubble Technique for Evaluation of Pulmonary Surfactant,” J Appl Physiol 43:198-203 (1977); Notter et al., “Pulmonary Surfactant: Physical Chemistry, Physiology and Replacement,” Rev Chem Eng 13:1-118 (1997), each of which is hereby incorporated by reference in its entirety).

[3] = test system: ventilated rabbits with ARDS induced by saline lavage; assay: Saline-lavage ventilated rabbit model of ARDS: arterial oxygenation and dynamic compliance; format: in vivo, New Zealand white rabbits; settings: intratracheal 100 mg/kg
Experimental: Saline lavage produces surfactant deficiency, alveolar collapse and lung edema in ventilated rats and rabbits, and is a useful experimental model for human ARDS. A saline-lavage rabbit model for lung injury was thus used to compare synthetic surfactants, with lipids only as negative control. Restoration of lung function was assessed by serial monitoring of gas exchange and lung mechanics. Physiological activity results for selected synthetic SP-B peptides are shown below, and physiological activity results for selected synthetic SP-C peptides are included in following Example 8.
Animal experiments were performed following established protocols approved by the Animal Care and Use Committee at the Los Angeles Biomedical Research Institute at Harbor-UCLA Medical Center. […] In brief, experimental animals were commercially available young adult male New Zealand white rabbits whose respiratory function was followed during mechanical ventilation by measurements of serial arterial blood gases and pulmonary compliance over the first 2 hours after a standardized saline lavage protocol. For this timeframe of study, the model reflected a relatively pure state of surfactant insufficiency in animals with mature lungs. Saline lavage administration was performed after induction of anesthesia, insertion of a venous line in a marginal ear vein, endotracheal intubation and initiation of mechanical ventilation, muscle paralysis, and insertion of a carotid arterial line. Heart rate, arterial blood pressure and rectal temperature were measured continuously. After stabilization on the ventilator, saline lavage was performed with repeated intratracheal instillation and removal of 30 mL of normal saline until the PaO2 dropped below 100 mm Hg (average 3 lavages). Maintenance fluid was provided by a continuous infusion of Lactated Ringer's solution at a rate of 10 ml/kg/h. Edema fluid appearing in the trachea was removed by suctioning. When the PaO2 was stable at less than 100 mm Hg in saline lavaged animals, an experimental or control surfactant mixture was instilled into the trachea at a dose of 100 mg/kg body weight and a concentration of 35 mg/mL. The rabbits were ventilated using a Harvard volume-controlled animal ventilator (tidal volume 7.5 ml/kg, a positive end-expiratory pressure [PEEP] of 3 cm H2O, an inspiratory/expiratory ratio of 1:2, 100% oxygen, and a respiratory rate to maintain a PaCO2 at ˜40 mm Hg). Airway flow and pressures and tidal volume were monitored continuously with a pneumotachograph connected to the endotracheal tube and a pneumotach system. Arterial pH and blood gases were done every 15 minutes. Dynamic lung compliance was calculated by dividing tidal volume/kg body weight by changes in airway pressure (peak inspiratory pressure minus positive end-expiratory pressure) (mL/kg/cmH2O). Animals were sacrificed 2 h after surfactant administration with an overdose of pentobarbital. End-points are pulmonary gas exchange (arterial pH, PaCO2 and PaO2) and pulmonary mechanics (dynamic compliance, postmortem pressure-volume curves). Each treatment group consisted of n=4-9 animals.
The in vivo pulmonary activity of reduced MB DATK and SMB DATK was investigated in comparison with oxidized SMB and MB (positive controls) and lipids alone (negative control) over 120 min, following intratracheal instillation of these surfactants into ventilated rabbits with ARDS induced by saline lavage. Oxidized SMB and MB were used as positive controls, because these SP-B mimics previously indicated high in vivo surfactant activities equal to those of native, full-length porcine SP-B in ventilated rats with ARDS (Walther et al., “Critical Structural and Functional Roles for the N-terminal Insertion Sequence in Surfactant Protein B Analogs,” PLoS One 5:e8672 (2010), which is hereby incorporated by reference in its entirety). […]

[4] = synthetic peptide; Walther et al. 2000; cited from earlier work
[5] = storage in organic solvent or in surfactant lipids for 4-6 weeks; Walther et al. 2007; cited from earlier work
[6] = Table 7, 0.0625 mg phospholipid/ml of subphase, normal saline pH 7.0, 37 ± 0.5° C, N = 4
[7] = Table 9, phospholipase-resistant lipids, 0.0625 mg phospholipid/ml, n = 4
[8] = Table 13, SP-B plus SP-C peptide (1.5%:1.5%) with resistant lipids or glycerophospholipids, 0.0625 mg phospholipid/ml, n = 4

Q: Which “Adsorption Surface Pressure at time 0 min” value [1, 6] does the source give for `CCCCCCCCCCCCCCCCOCC(COP(=O)(O)CCC[N+](C)(C)C)OCCCCCCCCCCCCCCCC` (racemic) [DEPN-8, [(±)-trimethyl(3-phosphonopropyl)ammonium, mono(2,3-bis(hexadecyloxy)propyl ester]] here?
A: 0 ± 0.0 mN/m

Q: And the “Adsorption Surface Pressure at time 1 min” value [1, 6]?
A: 12.9 ± 2.9 mN/m

Q: And the “Adsorption Surface Pressure at time 2 min” value [1, 6]?
A: 16.0 ± 1.6 mN/m

Q: What about the “Adsorption Surface Pressure at time 5 min” value [1, 6] of the same compound?
A: 17.8 ± 1.7 mN/m

Q: And the “Adsorption Surface Pressure at time 10 min” value [1, 6]?
A: 18.0 ± 1.7 mN/m

Q: And the “Adsorption Surface Pressure at time 15 min” value [1, 6]?
A: 18.2 ± 1.7 mN/m

Q: What about the “Adsorption Surface Pressure at time 0 min” value [1, 7] of the same compound?
A: 0.0 ± 0.0 mN/m

Q: And the “Adsorption Surface Pressure at time 1 min” value [1, 7]?
A: 12.9 ± 2.9 mN/m

Q: What about the “Adsorption Surface Pressure at time 2 min” value [1, 7] of the same compound?
A: 16.0 ± 1.6 mN/m

Q: And the “Adsorption Surface Pressure at time 5 min” value [1, 7]?
A: 17.8 ± 1.7 mN/m

Q: What about the “Adsorption Surface Pressure at time 10 min” value [1, 7] of the same compound?
A: 18.0 ± 1.7 mN/m

Q: What about the “Adsorption Surface Pressure at time 15 min” value [1, 7] of the same compound?
A: 18.2 ± 1.7 mN/m

Q: What about the “Adsorption Surface Pressure at time 0 min” value [1, 8] of the same compound?
A: 0.0 ± 0.0 mN/m

Q: What about the “Adsorption Surface Pressure at time 1 min” value [1, 8] of the same compound?
A: 12.9 ± 2.9 mN/m

Q: What about the “Adsorption Surface Pressure at time 2 min” value [1, 8] of the same compound?
A: 16.0 ± 1.6 mN/m

Q: And the “Adsorption Surface Pressure at time 5 min” value [1, 8]?
A: 17.8 ± 1.7 mN/m

Q: What about the “Adsorption Surface Pressure at time 10 min” value [1, 8] of the same compound?
A: 18.0 ± 1.7 mN/m

Q: What about the “Adsorption Surface Pressure at time 15 min” value [1, 8] of the same compound?
A: 18.2 ± 1.7 mN/m

Q: And the “Minimum Surface Tension at 0.25 min of bubble pulsation” value ([2]; 0.25 min)?
A: 31.2 ± 2.0 mN/m

Q: And the “Minimum Surface Tension at 0.5 min of bubble pulsation” value ([2]; 0.5 min)?
A: 27.1 ± 1.8 mN/m

Q: What about the “Minimum Surface Tension at 1 min of bubble pulsation” value ([2]; 1 min) of the same compound?
A: 21.2 ± 1.5 mN/m

Q: And the “Minimum Surface Tension at 2 min of bubble pulsation” value ([2]; 2 min)?
A: 14.6 ± 1.2 mN/m

Q: What about the “Minimum Surface Tension at 5 min of bubble pulsation” value ([2]; 5 min) of the same compound?
A: 7.8 ± 1.7 mN/m

Q: What about the “Minimum Surface Tension at 10 min of bubble pulsation” value ([2]; 10 min) of the same compound?
A: 1.5 ± 1.0 mN/m

Q: What about the “Minimum Surface Tension at 15 min of bubble pulsation” value ([2]; 15 min) of the same compound?
A: <1 mN/m

Q: For “GIPFFPVHLKRLLIVVVVVVLIVVVIVGALLMGL [SP-Cff]”, which “Oxygenation and lung compliance after instillation (FIG. 2)” value ([3]; SP-C mimics 3.0% by weight in 5:3:2 (weight ratio) DPPC:POPC:POPG, PBS pH 7.4, 35 mg/mL) is on record?
A: much less so

Q: What about the “relative order of pulmonary activity in terms of oxygenation and lung compliance” value ([3]; SP-C mimics 3.0% by weight in 5:3:2 DPPC:POPC:POPG) of the same compound?
A: SP-C33˜SP-Css ion-lock>SP-Cff>Lipids alone

Q: And the solubility in chloroform-methanol [4]?
A: low solubility

Q: What about the “conformational stability upon storage (FTIR)” value [5] of the same compound?
A: self-associates to form β-sheet aggregates
